Test results as given in US20160122307A1, “PERHYDROQUINOXALINE DERIVATIVES” (DR. AUGUST WOLFF GMBH & CO. KG ARZNEIMITTEL, priority 2013, published 2016).

Assays:
[1] = biological target: T1, Human opiate κ receptors (Homo sapiens, UniProt P41145); experiment: κ opioid receptor functional assay, [35S]GTPγS binding (assay C); format: biochemical; conditions: for EC50: read-out: GTPγS EC50
[2] = biological target: T1, Human opiate κ receptors; format: binding; set-up: expressed in transfected cells; host or cells: HEK-293 cell membranes

T1 sequence (P41145 whole entry): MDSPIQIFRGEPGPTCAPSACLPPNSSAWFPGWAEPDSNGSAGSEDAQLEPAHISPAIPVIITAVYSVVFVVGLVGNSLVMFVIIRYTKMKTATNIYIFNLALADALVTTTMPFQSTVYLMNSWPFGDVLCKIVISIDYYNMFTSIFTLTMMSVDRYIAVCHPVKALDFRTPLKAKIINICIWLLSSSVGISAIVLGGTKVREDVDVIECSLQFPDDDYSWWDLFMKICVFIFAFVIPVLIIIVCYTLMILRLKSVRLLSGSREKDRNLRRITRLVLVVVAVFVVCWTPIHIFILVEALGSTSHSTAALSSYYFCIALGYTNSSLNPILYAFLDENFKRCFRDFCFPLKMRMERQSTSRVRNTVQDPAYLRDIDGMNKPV

SMILES	% activation functional assay at 1 μM [1]	EC50 [1]	% binding at 100 nM [2]	% binding at 1 μM [2]
COC(=O)N1CCN(C(=O)Cc2ccc(Cl)c(Cl)c2)[C@@H]2[C@@H](N(C)C)CCC[C@@H]21.Cl (racemic) [Example 17]	92%	< 10 nM	92%	97%
CNS(=O)(=O)N1CCN(C(=O)Cc2ccc(Cl)c(Cl)c2)C2C(N3CCC(O)C3)CCCC21.Cl (stereo not shown) [Example 131]	104%	< 10 nM	78%	–
CN(C)S(=O)(=O)N1CCN(C(=O)Cc2ccc(Cl)c(Cl)c2)C2C(N3CCC(O)C3)CCCC21.Cl (stereo not shown) [Example 129]	104%	< 10 nM	80%	–
O=C(Cc1ccc(Cl)c(Cl)c1)N1CCN(S(=O)(=O)NC2CCCC2)[C@H]2CCC[C@H](N3CC[C@H](O)C3)[C@H]21 [Example 135]	105%	< 10 nM	76%	–
O=C(Cc1ccc(F)c(Cl)c1)N1CCN(S(=O)(=O)Cc2ccon2)[C@H]2CCC[C@H](N3CC[C@H](O)C3)[C@H]21 [Example 148]	93%	< 10 nM	92%	–
Cl.O=C(Cc1ccc(Cl)c(Cl)c1)N1CCN(S(=O)(=O)NCCO)C2CCCC(N3CCC(O)C3)C21 (stereo not shown) [Example 130]	102%	10 to 100 nM	70%	–
CC(C)OC(=O)C(=O)N1CCN(C(=O)Cc2ccc(Cl)c(Cl)c2)[C@@H]2[C@@H](N3CCCC3)CCC[C@@H]21.Cl [Example 123]	99%	< 10 nM	68%	–
Cl.O=C(Cc1ccc(Cl)c(Cl)c1)N1CCN(C(=O)NCc2ccccc2)[C@H]2CCC[C@H](N3CCCC3)[C@H]21 (racemic) [Example 41]	81%	< 10 nM	92%	–
O=C(Cc1ccc(Cl)c(Cl)c1)N1CCN(S(=O)(=O)N2CCOCC2)[C@H]2CCC[C@H](N3CC[C@H](O)C3)[C@H]21 [Example 137]	101%	< 10 nM	71%	–
Cl.O=C(Cc1ccc(Cl)c(Cl)c1)N1CCN(S(=O)(=O)N2CCCC2)C2CCCC(N3CCC(O)C3)C21 (stereo not shown) [Example 127]	100%	10 to 100 nM	66%	–
COC(=O)N1CCN(C(=O)Cc2ccc(F)c(Cl)c2)[C@@H]2[C@@H](N3CC[C@H](F)C3)CCC[C@@H]21 [Example 150]	92%	< 10 nM	97%	–
COC(=O)N1CCN(C(=O)Cc2ccc([N+](=O)[O-])cc2)[C@@H]2[C@@H](N3CCCC3)CCC[C@@H]21.Cl (racemic) [Example 4]	–	–	43%	–
CCOC(=O)COC(=O)N1CCN(C(=O)Cc2ccc(Cl)c(Cl)c2)C2C(N3CCCC3)CCCC21.Cl (stereo not shown) [Example 111]	105%	< 10 nM	105%	–
CC(C)NS(=O)(=O)N1CCN(C(=O)Cc2ccc(Cl)c(Cl)c2)[C@@H]2[C@@H](N3CC[C@H](O)C3)CCC[C@@H]21 [Example 134]	102%	< 10 nM	67%	–
Cl.O=C(Cc1ccc(Cl)c(Cl)c1)N1CCN(S(=O)(=O)c2cn[nH]c2)C2CCCC(N3CCC(O)C3)C21 (stereo not shown) [Example 128]	95%	< 10 nM	92%	–
O=C(Cc1ccc(Cl)c(F)c1)N1CCN(S(=O)(=O)Cc2ccon2)[C@H]2CCC[C@H](N3CC[C@H](O)C3)[C@H]21 [Example 147]	105%	< 10 nM	88%	–
COC(=O)N1CCN(C(=O)Cc2c[nH]c3ccccc23)[C@@H]2[C@@H](N3CCCC3)CCC[C@@H]21.Cl (racemic) [Example 9]	–	–	43%	–
COC(=O)N1CCN(C(=O)Cc2cc(F)cc(F)c2)[C@@H]2[C@@H](N3CCCC3)CCC[C@@H]21.Cl (racemic) [Example 2]	–	–	41%	–
